This passage reports Ki and clearance results from US9481688B2, “(Thieno[2,3-b][1,5]benzoxazepin-4-yl)piperazin-1-yl compounds as dual activity H1 inverse agonists/5-HT2A antagonists” (Eli Lilly and Company, priority 2011, dated 2016).

The target of series [1] is human recombinant H1 receptor (Homo sapiens (Human), UniProt P35367). In words: H1 competition binding assay ([3H]-Pyrilamine, SPA). Here is the method: [^3H]-Pyrilamine binding experiments are carried out in SPA (scintillation proximity assay) 96-well format. Membranes used in this assay are prepared from HEK-293 cells stably expressing recombinant H1 receptor (human). The incubation is initiated by the addition of a mixture of WGA PVT SPA beads (1 mg/well, Perkin Elmer (MA, USA) RPNQ0001) and 3 μg membranes to assay buffer (67 mM Tris; pH 7.6) containing 3.5 nM [^3H]-Pyrilamine and varying concentrations of the test compound (10 point concentration response curves). Non-specific binding is determined in the presence of 10 μM Triprolidine. Samples are incubated for 4 hr. at room temperature (22° C.) and then read in a Microbeta Trilux.
human recombinant H1 receptor, sequence (P35367 whole entry): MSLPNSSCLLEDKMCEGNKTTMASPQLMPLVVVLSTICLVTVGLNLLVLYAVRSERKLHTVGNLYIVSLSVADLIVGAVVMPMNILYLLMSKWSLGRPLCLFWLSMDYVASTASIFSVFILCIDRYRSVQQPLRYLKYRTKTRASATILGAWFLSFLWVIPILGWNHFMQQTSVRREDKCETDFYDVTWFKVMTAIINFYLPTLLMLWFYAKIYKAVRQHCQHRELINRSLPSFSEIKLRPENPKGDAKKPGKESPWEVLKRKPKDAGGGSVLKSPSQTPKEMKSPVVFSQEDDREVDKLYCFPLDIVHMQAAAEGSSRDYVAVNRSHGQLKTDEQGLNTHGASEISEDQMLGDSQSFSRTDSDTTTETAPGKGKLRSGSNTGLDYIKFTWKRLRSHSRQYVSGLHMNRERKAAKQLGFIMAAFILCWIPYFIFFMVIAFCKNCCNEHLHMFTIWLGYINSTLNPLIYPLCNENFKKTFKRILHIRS
Curves are evaluated using a 4-parameter logistic nonlinear equation to obtain the concentration of competitor causing 50% inhibition of radioligand binding (IC50). Equilibrium dissociation constants (Ki) are calculated according to the equation Ki=IC50/(1+L/Kd), where L equals the concentration of radioligand used in the experiment and Kd equals the equilibrium dissociation constant of the radioligand for the receptor, determined from standard saturation analysis or homologous competition experiments. Reported values for Ki, where n values are indicated, are shown as geometric mean±the standard error of the mean (SEM), with the number of replicate determinations indicated by n. […]

The target of series [2] is recombinant 5-HT2A receptor (human) (Homo sapiens (Human), UniProt P28223). In words: 5-HT2A competition binding assay ([3H]-Ketanserin, SPA).
Description: [^3H]-Ketanserin binding experiments are carried out in SPA 96-well format. Membranes used in this assay are prepared from AV-12 cells stably expressing recombinant 5-HT2A receptor (human). The incubation is initiated by the addition of a mixture of WGA YSi SPA beads (1 mg/well, Perkin Elmer (MA, USA), RPNQ0011) and 2 μg membranes to assay buffer (67 mM Tris, 0.5 mM EDTA; pH 7.6) containing 3.1 nM [^3H]-Ketanserin and varying concentrations of the test compound (10 point concentration response curves). Non-specific binding is determined in the presence of 20 μM 1-(1-Naphthyl) piperazine. Samples are incubated for 4 hr. at room temperature (22° C.) and then read in a Microbeta Trilux.
Series [3] concerns the target recombinant 5-HT2C receptor (human) (Homo sapiens (Human), UniProt P28335). As to the kind of experiment: 5-HT2C competition binding assay ([125I]-DOI, SPA).
Description: [^125I]-(±)DOI binding experiments are carried out in SPA 96-well format. Membranes used in this assay are prepared from AV-12 cells stably expressing recombinant 5-HT2C receptor (human). The incubation is initiated by the addition of a mixture of WGA PVT SPA beads (0.5 mg/well, Perkin Elmer (MA, USA), RPNQ0001) and 2.5 μg membranes to assay buffer (50 mM Tris-HCl, 10 mM MgCl2, 0.5 mM EDTA, 10 μM pargyline, 0.1% ascorbic acid, pH7.4) containing 0.2 nM [[^125I]-(±)DOI and varying concentrations of the test compound (10 point concentration response curves). Non-specific binding is determined in the presence of 20 μM 1-(1-Naphthyl) piperazine. Samples are incubated for 4 hr. at room temperature (22° C.) and then read in a Microbeta Trilux.
Curves are evaluated using a 4-parameter logistic nonlinear equation to obtain the concentration of competitor causing 50% inhibition of radioligand binding (IC50). Equilibrium dissociation constants (Ki) are calculated according to the equation Ki=IC50/(1+L/Kd), where L equals the concentration of radioligand used in the experiment and Kd equals the equilibrium dissociation constant of the radioligand for the receptor, determined from standard saturation analysis or homologous competition experiments. […]
For series [4], the target named is Dopamine D2 (Homo sapiens (Human), UniProt P14416). As to the kind of experiment: Dopamine D2 binding. From the text: (§1) Further, the compounds of the invention may be tested in binding assays and functional activity assays by well known methods for other physiologically important receptors such as, but not limited to, the hERG channel, other serotonin receptors (specifically 5-HT1B, 5-HT1D, receptors, lack of agonist activity at 5-HT2B receptors, 5-HT2C, 5-HT5, 5-HT6, and 5-HT7 receptors), dopaminergic receptors (specifically D1, D2, and D3), GABAA receptors, adrenergic receptors and monoamine transporters.
Dopamine D2, sequence (P14416 whole entry): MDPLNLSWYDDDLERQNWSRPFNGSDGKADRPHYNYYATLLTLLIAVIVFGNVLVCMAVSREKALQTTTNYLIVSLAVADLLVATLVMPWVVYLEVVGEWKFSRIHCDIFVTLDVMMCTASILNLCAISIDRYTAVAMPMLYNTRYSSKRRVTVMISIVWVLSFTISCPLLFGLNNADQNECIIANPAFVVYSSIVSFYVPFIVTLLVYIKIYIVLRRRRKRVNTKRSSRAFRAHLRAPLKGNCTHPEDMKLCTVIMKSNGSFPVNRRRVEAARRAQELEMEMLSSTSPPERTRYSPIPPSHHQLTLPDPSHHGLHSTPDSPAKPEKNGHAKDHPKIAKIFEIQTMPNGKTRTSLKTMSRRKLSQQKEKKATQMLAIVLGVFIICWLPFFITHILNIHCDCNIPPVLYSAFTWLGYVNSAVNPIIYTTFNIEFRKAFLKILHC

Series [5] has as its target Dopamine D3 (Homo sapiens (Human), UniProt P35462). As to the kind of experiment: Dopamine D3 binding.
Description: as §1

Series [6] is described as follows: Plasma clearance in rat (intravenous). Type of series: in vivo. The conditions noted are these: male, Sprague Dawley, rat, plasma, iv, 1 mg/kg, read-out: Clearance. The procedure:
Male Sprague Dawley rats (body weight range 250-320 g) with indwelling femoral arterial cannulae are obtained from Charles River, Wilmington, Mass. 01887, USA. Test compound is administered intravenously in solution (1 mL/kg) in 20% Captisol® in 22.5 mM phosphate buffer, pH 2, at a final drug concentration of 1.0 mg/mL (free base equivalents). Blood samples are obtained using the indwelling cannula over 24 hr. Samples of plasma are obtained by centrifugation and stored frozen (−20° C.), or on dry ice, prior to analysis.
Frozen plasma samples are thawed to room temperature for bioanalysis of concentrations of test compound. A related internal standard compound in acetonitrile/methanol (1:1, v/v) is added to all samples of plasma (1:1, v/v). The samples are centrifuged to remove precipitated protein prior to analysis. The supernatants are analysed by injection and rapid gradient elution on a Javelin Betasil C18 column (20×2.1 mm cartridge, Mobile phase A: Water/1 M NH4HCO3, 2000:10 v/v, Mobile Phase B: MeOH/1 M NH4HCO3, 2000:10 v/v). The eluted analytes are detected by LC-MS-MS analysis using a Sciex API 4000 triple quadrupole mass spectrometer. Concentrations of compound are determined from standards prepared and analysed under identical conditions. Clearance is calculated using non-compartmental analysis in Watson 7.4, Thermo Fisher Scientific, Inc.

Dopamine D3, sequence (P35462 whole entry): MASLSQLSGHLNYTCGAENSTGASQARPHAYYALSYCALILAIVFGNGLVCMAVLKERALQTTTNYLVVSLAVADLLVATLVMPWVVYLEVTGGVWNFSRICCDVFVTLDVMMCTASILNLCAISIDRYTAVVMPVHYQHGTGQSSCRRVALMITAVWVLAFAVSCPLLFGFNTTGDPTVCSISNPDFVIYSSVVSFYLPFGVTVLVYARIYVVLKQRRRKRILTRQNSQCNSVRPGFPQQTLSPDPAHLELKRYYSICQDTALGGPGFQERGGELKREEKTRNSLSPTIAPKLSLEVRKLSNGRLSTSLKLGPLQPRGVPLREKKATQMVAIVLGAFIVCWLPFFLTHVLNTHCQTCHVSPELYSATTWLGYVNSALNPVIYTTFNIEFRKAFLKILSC
recombinant 5-HT2C receptor (human), sequence (P28335 whole entry, looked up): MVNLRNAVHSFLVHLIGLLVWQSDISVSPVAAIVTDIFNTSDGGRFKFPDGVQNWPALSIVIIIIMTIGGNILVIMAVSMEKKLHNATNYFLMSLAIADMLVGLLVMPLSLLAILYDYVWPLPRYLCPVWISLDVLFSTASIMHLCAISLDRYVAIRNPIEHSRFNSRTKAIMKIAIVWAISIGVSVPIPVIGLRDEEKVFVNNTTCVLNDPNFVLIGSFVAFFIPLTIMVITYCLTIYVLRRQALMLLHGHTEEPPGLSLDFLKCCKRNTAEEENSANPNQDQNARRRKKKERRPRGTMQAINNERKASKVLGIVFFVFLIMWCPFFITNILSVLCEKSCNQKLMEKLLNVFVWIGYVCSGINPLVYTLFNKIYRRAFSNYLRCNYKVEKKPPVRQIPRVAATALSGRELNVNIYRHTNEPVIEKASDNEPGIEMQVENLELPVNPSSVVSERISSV

Usually Ki stands for the dissociation constant of the complex between target and ligand, obtained from inhibition or displacement. As a reminder, the clearance is a measure of how efficiently the substance is removed, as volume per time. As for `Cc1ccc2c(c1)Oc1sc(Cl)cc1C(N1CCN(CC(C)(C)C(=O)O)CC1)=N2` [Example 1, 3-[4-(2-Chloro-8-methyl-thieno[2,3-b][1,5]benzoxazepin-4-yl)piperazin-1-yl]-2,2-dimethyl-propanoic acid], the Ki in series [1] was 20.6 nM; in series [2], 3.37 nM; in series [3], 137 nM; in series [4], 2780 nM; in series [5], greater than 5510 nM. Besides, the clearance in series [6] stood at 14.1 mL/min/kg.
